Data set [1] is described as follows: Stability of the compound in mouse plasma assessed as parent compound remaining at 1 uM measured after 5 mins. The following applies: read-out: Stabilty. It is filed as ADME, cell-free.
Data set [2] can be described thus: Cmax in overnight-fasted ICR mouse systemic circulation at 50 mg/kg, po measured after 1 hr by LC-MS/MS analysis. Format: ADME, organism-based. On the set-up: route oral, time 1 hrs, dose 50 mg/kg.
Data set [3] can be described thus: Cmax in overnight-fasted ICR mouse systemic circulation assessed as 5-[3-(4-Cyclopropyl-3,4-dihydro-2H-quinoxaline-1-carbonyl)-pyridin-4-yloxy]-benzofuran-3-carboxylic acid at 50 mg/kg, po measured after 1 hr by LC-MS/MS analysis. Format: ADME, organism-based. On the set-up: route oral, dose 50 mg/kg, time 1 hrs. The note with it: in vivo.
Data set [4] is described as follows: Cmax in overnight-fasted ICR mouse gallbladder tissue assessed as 5-[3-(4-Cyclopropyl-3,4-dihydro-2H-quinoxaline-1-carbonyl)-pyridin-4-yloxy]-benzofuran-3-carboxylic acid at 50 mg/kg, po measured after 1 hr by LC-MS/MS analysis. Format: ADME, organism-based, Gall bladder. On the set-up: route oral, time 1 hrs, dose 50 mg/kg. The following applies: in vivo.
Data set [5] in a line: Cmax in overnight-fasted ICR mouse bile assessed as 5-[3-(4-Cyclopropyl-3,4-dihydro-2H-quinoxaline-1-carbonyl)-pyridin-4-yloxy]-benzofuran-3-carboxylic acid at 50 mg/kg, po measured after 1 hr by LC-MS/MS analysis. Format: ADME, organism-based. On the set-up: route oral, time 1 hrs, dose 50 mg/kg. The note with it: in vivo.
Data set [6] can be described thus: Peak drug concentration in overnight-fasted ICR mouse ileum at 50 mg/kg, po measured after 2 hr by LC-MS/MS analysis. Format: ADME, organism-based. On the set-up: route oral, dose 50 mg/kg, time 2 hrs.
Data set [7] can be described thus: Peak drug concentration in overnight-fasted ICR mouse colon at 50 mg/kg, po measured after 4 hr by LC-MS/MS analysis. It is filed as ADME, organism-based. On the set-up: route oral, time 4 hrs, dose 50 mg/kg.

On to `CCOC(=O)c1coc2cc(Cl)c(Oc3ccncc3C(=O)N3CCN(C4CC4)c4ccccc43)cc12`, for which, in data set [1], the remaining at 5 min, 1 µM stood at 92.4%.
Same read-out and setting: next, `CCCOC(=O)c1coc2ccc(Oc3ccncc3C(=O)N3CCN(C4CC4)c4ccccc43)cc12`: 12.3%; `COC(=O)c1coc2ccc(Oc3ccncc3C(=O)N3CCN(C4CC4)c4ccccc43)cc12`: 71%.
On to `CCOC(=O)c1coc2ccc(Oc3ccncc3C(=O)N3CCN(C4CC4)c4ccccc43)cc12`, for which the remaining at 5 min, 1 µM in data set [1] amounted to 38.5%.
The Cmax is the peak of the concentration-time curve. Take `CCOCOC(=O)c1coc2ccc(Oc3ccncc3C(=O)N3CCN(C4CC4)c4ccccc43)cc12`: the Cmax in data set [2] was determined as 3 ng/mL; in data set [3], 80 ng/mL; in data set [4], 80 ng/mL; in data set [5], 80 ng/mL; in data set [6] it was 10200 ng/g; in data set [7], 2700 ng/g.

The record behind these values is ChEMBL document CHEMBL4765387, “Design of G-protein-coupled bile acid receptor 1 (GPBAR1, TGR5) soft drugs with reduced gallbladder-filling effects” (Eur J Med Chem, 2020).
